Source: paper PMC10698186 (Nature Communications, 2023)
Entries after “also recorded” stand apart in the source; their conditions may differ.

Experiments:
[1] = test system: SK-BR-3, SK-OV-3, JIMT-1 and MCF7 cells; assay: Cell viability, all cells of Fig. 4d; assay type: cell-based; conditions: SK-BR-3, SK-OV-3, JIMT-1, MCF7; CellTiter Glo; n = 3 independent experiments
Experimental: (§1) Cells were seeded in a 96-well white opaque plate at a density of 5 × 10^3/well (CHO, ATCC, CCL-61) or 1 × 10^4/well (MCF7 (ATCC, HTB-22), SK-BR-3 (ATCC, HTB-30), SK-OV-3 (ATCC, HTB-77) or JIMT-1(Beyotime, C6453)). Cells were allowed to attach for 24 h at 37 °C and 5% CO2 in humidified atmosphere. Cells were then treated with serial dilutions of Tra-CAST, Tra-CAST-MMAE and SBA-MMAE or Tra-CASTi, Tra-CASTi-MMAE and DBCO-MMAE for 96 h (BT474, MCF7, SK-BR-3). Cell viability was determined using CellTiter Glo reagents (G7571) and was normalized to the control cells. Data was analyzed by Graphpad software, and the half-maximal effective concentration (EC50) value was calculated by fitting with the log(inhibitor) vs. response module.
10! […]
(§2) Our selected nanobody binds to human serum albumin (HSA)7, The functional impact of inserting CAST to nanobody was evaluated by measuring the affinity to human serum albumin using Biolayer Interferometry at room temperature. […]
Cells were seeded in a 96-well white opaque plate at a density of 5 × 10^3/well (CHO) or 1 × 10^4/well (MCF7, SK-BR-3, SK-OV-3 or JIMT-1). […] Cell viability was determined using CellTiter Glo reagents (G7571) and was normalized to the control cells. Data was analyzed by Graphpad software, and the half-maximal effective concentration (EC50) value was calculated by fitting with the log(inhibitor) vs. response module. […]

10 mM cysteine in PBS = conditions: 95 °C, up to 1 hour
PBS = conditions: 95 °C, up to 1 hour
mouse plasma = conditions: Male BALB/c mice, 37 °C, up to 144 h
fresh serum = conditions: Male BALB/c mice, 37 °C, up to 20 hours (table); 21 h (methods)
[2] = 20 mM glutathione, PBS (pH 7.4); conditions: 37 °C, up to 22 h
CHO, MCF7, SK-BR-3 cells = assay: Cell viability, all cell lines of Supplementary Fig. 38; assay type: cell-based; conditions: 96 h, CellTiter Glo
Experimental: as §1
Deconvolutedmass (Da) Deconvolutedmass (Da)
Supplementary Figure 37. ESI ion series/deconvolution MS spectra: reactions between […]
trastuzumab-CAST and 1C and SBA-MMAE. a. […]
as §2
Cells were seeded in a 96-well white opaque plate at a density of 5 × 10^3/well (CHO) or 1 × 10^4/well (MCF7, SK-BR-3, SK-OV-3 or JIMT-1). […] Cell viability was determined using CellTiter Glo reagents (G7571) and was normalized to the control cells. Data was analyzed by […]

Row | Substance | cleaved bond (fresh serum) | further results
1 | DBCO-PEG3-Glu-Val-Cit-PAB-MMAE [DBCO-MMAE] |  | toxicity towards all cells [1]: minimal toxicity
2 | DLAAEIAKHCG |  | fragment found (10 mM cysteine in PBS): Maleimide hydrolysis byproduct, 1h; also recorded: SM:DLAAEIAKHCG, 1h; fragment found (PBS): Maleimide hydrolysis byproduct, 1h
3 | Phenyl-PEG2-FFKKDDHAA |  | cleaved bond (mouse plasma): F-K, 18 h; also recorded: F-F, 48 h; fragment found (mouse plasma): Phenyl-PEG2-FFKK, 48 h
4 | Phenyl-PEG2-IAPDDHAA |  | not cleaved (mouse plasma): remained intact following incubation in plasma for 144 h
5 | Phenyl-PEG2-SPG-FFKKDDHAA | P-G, 3 hours; also recorded: F-K, 3 hours; also recorded: G-F, 3 hours | 
6 | Phenyl-PEG2-SPG-HAQDDHAA | P-G, 3 hours | 
7 | Phenyl-PEG2-SPG-IAPDDHAA | G-I, 3 hours; also recorded: D-D, 20 hours; also recorded: P-G, 20 hours | 
8 | Phenyl-PEG2-SPG-IAQDDHAA | G-I, 3 hours | 
9 | Phenyl-PEG2-SPG-IKAQDDHAA | I-K, 3 hours; also recorded: G-I, 3 hours; also recorded: A-Q, 3 hours; also recorded: P-G, 3 hours | 
10 | Phenyl-PEG2-SPG-INDPDDHAA | P-G, 3 hours; also recorded: G-I, 20 hours | 
11 | Phenyl-PEG2-SPG-KAQDDHAA | P-G, 3 hours; also recorded: G-K, 3 hours | 
12 | Phenyl-PEG2-SPG-LKQDDHAA | G-L, 3 hours | 
13 | Phenyl-PEG2-SPG-MEQDDHAA | G-M, 3 hours; also recorded: P-G, 3 hours | 
14 | Phenyl-PEG2-SPG-NAPDDHAA | G-N, 20 hours; also recorded: P-G, 20 hours | 
15 | Phenyl-PEG2-SPG-NAQDDHAA | G-N, 3 hours; also recorded: P-G, 3 hours | 
16 | Phenyl-PEG2-SPG-NEQDDHAA | P-G, 3 hours; also recorded: G-N, 20 hours | 
17 | Phenyl-PEG2-SPG-NKKDDHAA | G-N, 3 hours | 
18 | Phenyl-PEG2-SPG-SHAQDDHAA | G-S, 3 hours; also recorded: P-G, 3 hours | 
19 | Phenyl-PEG2-SPG-SKAQDDHAA | G-S, 3 hours; also recorded: P-G, 3 hours | 
20 | WCGIAPDDHAA [maleimide modified WCGIAPDDHAA] |  | fragment found [2]: released free peptide WCGIAPDDHAA, 22 h; also recorded: maleimide hydrolysis byproducts, 22 h
21 | WCGIAPDDHAA [maleimide-WCGIAPDDHAA] |  | fragment found [2]: WCGIAPDDHAA, 22 h
22 | styrylboronic acid-Val-Cit-PAB-monomethyl auristatin E [SBA-MMAE] |  | toxicity in all cell lines at the tested concentrations (CHO, MCF7, SK-BR-3 cells): displayed toxicity and could not effectively distinguish HER2-negative MCF7 cells or HER2-positive SK-BR-3 cells
